Results taken from PubChem BioAssay AID1996.
Values after ≈ are worked out from the molar mass of the structure shown.

Settings: buffer; pH 7.4; 200.0 µM

| solubility kinetic [mg/mL] | SMILES |
| --- | --- |
| 0.013 (≈ 40.2 µM) | Clc1ccc(CN2CCN(c3ncccn3)CC2)cc1Cl |
| < 0.0002 | COc1ccc(Cl)cc1Nc1nc(-c2cccnc2)cs1 |
| 0.022 (≈ 56.1 µM) | COc1cccc(NC(=O)CN2C(=O)NC(Cc3c[nH]c4ccccc34)C2=O)c1 (centres undefined) |
| > 0.0469 | Cc1ccc(C(=O)Nc2ccc(C(=O)N3CCCCC3)cc2)o1 |
| 0.0046 (≈ 16.3 µM) | O=C1NC(=Nc2ccccc2)SC1Cc1ccccc1 (centres undefined) |
| 0.0295 (≈ 128 µM) | CCOc1ccc(NC2=CC(=O)CCC2)cc1 |
| > 0.0542 | CC(C)OCCCNC(=O)C1CCN(S(=O)(=O)N2CCCC2)CC1 |
| 0.0428 (≈ 142 µM) | C/C(=C\c1ccc(Cl)cc1)C(=O)c1c(C)cc(C)[nH]c1=O |
| > 0.0436 | O=C(NCC1CCCO1)c1cc2ccccc2nc1Cl (centres undefined) |
| 0.0089 (≈ 29.9 µM) | COc1cc(NS(=O)(=O)c2cn(C)cn2)cc(OC)c1 |
| > 0.0371 | Cc1cnc(SCc2cnc(C)nc2N)nc1 |
| 0.0503 (≈ 146 µM) | CCCN(CCC)C(=O)CC(c1ccccc1)C1CCOC(C)(C)C1 (centres undefined) |
| > 0.0545 | COc1ccc(CN(C)C(=O)c2ccc3c(=O)n4c(nc3c2)CCC4)cc1 |
| 0.0457 (≈ 139 µM) | CC(=O)c1cccc(NC(=O)CO/N=C2/CCCc3nonc32)c1 |
| > 0.0497 | CCCNC(=O)c1ccc(COc2ccc(CCC)cc2OC)o1 |
| > 0.0583 | COc1ccccc1NS(=O)(=O)c1ccc(C(=O)N2CCCCCC2)cc1 |
| > 0.0497 | NS(=O)(=O)c1cc2c(cc1C(F)(F)F)NCNS2(=O)=O |
| > 0.0389 | O=C(Cc1cccs1)NCCCc1ccccc1 |
| 0.0353 (≈ 67.9 µM) | COc1ccc(-n2c(SCC(=O)N(C)C3CCS(=O)(=O)C3)nc3ccc(O)cc3c2=O)cc1OC (centres undefined) |
| 0.002 (≈ 5.66 µM) | Cc1nc(NCCOc2ccccc2)sc1C(=O)Nc1ccccc1 |
| > 0.0527 | O=C(Nc1cc(C(F)(F)F)ccc1N1CCOCC1)c1ccncc1 |
| > 0.0476 | CCCNC(=O)c1oc2ccc3c(c2c1C)C(O)CC(C)(C)O3 (centres undefined) |
| 0.0012 (≈ 3.1 µM) | Cc1ccc(S(=O)(=O)N(C)c2ccc(OC(=O)c3cccs3)cc2)cc1 |

| solubility kinetic [mg/mL] | SMILES |
| --- | --- |
| > 0.0404 | O=C(O)CNC(=O)C(c1ccccc1)c1ccccc1 |
| 0.0435 (≈ 131 µM) | CC(Sc1nc2sccc2c(=O)n1-c1ccccc1)C(N)=O (centres undefined) |
| 0.0414 (≈ 139 µM) | CC1C(Br)C(=O)NC(=O)N1Cc1ccccc1 (centres undefined) |
| > 0.045 | CCn1cc([N+](=O)[O-])c(C(=O)N2CCCc3ccccc32)n1 |
| 0.0103 (≈ 27.3 µM) | O=C(Nc1cscc1S(=O)(=O)c1ccccc1)c1ccccc1Cl |
| > 0.0468 | C=CCc1ccccc1OCC(O)CNC1CCCC1.Cl (centres undefined) |
| 0.0013 (≈ 3.88 µM) | CC(C)(C)NC(=O)C(OC(=O)c1cccs1)c1ccc(F)cc1 (centres undefined) |
| 0.0033 (≈ 11.2 µM) | Cc1ccc(-c2ccc(C#N)c(=O)n2CC(=O)N(C)C)cc1 |
| < 0.0004 | CCOC(=O)C1=C(C)N(C)C(=S)NC1c1c(OCC)ccc2ccccc12 (centres undefined) |
| > 0.0484 | CC1(C(=O)NCCOc2ccccc2Cl)CC1(Cl)Cl (centres undefined) |
| > 0.0452 | Cc1noc(C)c1CN1C(=O)c2cccc([N+](=O)[O-])c2C1=O |
| < 0.0007 | CC(C)c1cc(O)c(-c2ccccc2)c(=O)n1-c1ccc(Cl)cc1 |
| 0.0454 (≈ 147 µM) | CCOc1ccc(S(=O)(=O)NCCCn2ccnc2)cc1 |
| 0.0304 (≈ 99.2 µM) | Cc1ccc(SC(C)C(=O)N2CCC(C(N)=O)CC2)cc1 (centres undefined) |
| > 0.0473 | CC(C)NC(=O)C(=O)Nc1cc2c3c(c1)CCC(=O)N3CCC2 |
| > 0.0459 | Cc1cc(C)nc(NC(=O)c2ccc(Br)cc2)n1 |
| > 0.0407 | O=C(NCc1cccnc1)Nc1ccc2c(c1)OCO2 |
| > 0.0506 | O=C1OC(c2ccc3c(c2)OCO3)=N/C1=C\c1ccc(C(=O)O)cc1 |
| > 0.0359 | C=CCNC(=O)C(=O)NCC1CCCN1CC (centres undefined) |
| 0.0182 (≈ 56.1 µM) | O=[N+]([O-])c1ccccc1OCCCOc1cccc2cccnc12 |
| 0.0072 (≈ 23.4 µM) | O=C(OCC(=O)c1ccc[nH]1)c1ccc(Br)cc1 |
| > 0.0428 | Cc1nc2ccccc2n1CC(=O)NC1CCCCCC1 |
| 0.0006 (≈ 1.91 µM) | CC(=O)CCSc1ncnc2sc(-c3ccccc3)cc12 |

| solubility kinetic [mg/mL] | SMILES |
| --- | --- |
| 0.0005 (≈ 1.5 µM) | S=C(Nc1cccc(Cl)c1)N1CCN(c2ccccn2)CC1 |
| > 0.0505 | Cn1c(=O)c2c([nH]c(=S)n2Cc2ccc(Cl)cc2)n(C)c1=O |
| > 0.0502 | COCCn1c(SCC(=O)NC2CCCC2)nc2cccnc21 |
| > 0.0328 | CC1CCC(N2CCNCC2)CC1.Cl (centres undefined) |
| > 0.0532 | O=C(N/C(=C\c1ccco1)C(=O)N1CCCC(CO)C1)c1ccccc1 (centres undefined) |
| 0.0335 (≈ 122 µM) | N#CCc1nc(C(c2ccccc2)c2ccccc2)no1 |
| 0.0203 (≈ 61.9 µM) | O=C(CN1CCCC1)Nc1ccc(Br)cc1[N+](=O)[O-] |
| > 0.0497 | CN/C(=C\[N+](=O)[O-])NCCSCc1csc(CN(C)C)n1 |
| > 0.0428 | CNS(=O)(=O)c1ccc(N2CCCC2)c([N+](=O)[O-])c1 |
| 0.029 (≈ 128 µM) | CSCCC1COC(c2cccs2)=N1 (centres undefined) |
| 0.0479 (≈ 141 µM) | CCN1C(=O)c2ccccc2Sc2ccc(C(=O)NC(C)C)cc21 |
| 0.0054 (≈ 18.5 µM) | O=C(OCc1cccc([N+](=O)[O-])c1)c1cccnc1Cl |
| 0.0318 (≈ 145 µM) | CSc1nc(N(C)C)c2ccccc2n1 |
| > 0.0611 | CN1CCN(c2nc3ccccc3nc2C(C#N)S(=O)(=O)c2ccccc2)CC1 (centres undefined) |
| 0.0052 (≈ 15.5 µM) | Cc1ccc(C(=O)Nc2ccc(C(=O)N3CCCCC3C)cc2)cc1 (centres undefined) |
| 0.0382 (≈ 148 µM) | O=C1C(=O)N(CC(=O)N2CCCC2)c2ccccc21 |
| 0.0389 | Cc1cccc(C(=O)OC(C)CN2CCOCC2)c1.Cl (centres undefined) |
| > 0.0399 | CCOC(=O)C1=C(C)NC(=O)NC1c1cccs1 (centres undefined) |
| 0.0452 (≈ 134 µM) | O=[N+]([O-])c1ccc(S(=O)(=O)Nc2ccc3c(c2)OCCO3)cc1 |
| 0.0242 (≈ 99.5 µM) | CCCCOc1ccc(-c2ncc(N)cn2)cc1 |
| 0.0225 (≈ 74.2 µM) | CCCCOc1ccc(OCCNC(=O)c2ccco2)cc1 |
| > 0.0692 | CC(=O)Nc1ccc(C(=O)OCC(=O)Nc2ccc(S(=O)(=O)N3CCOCC3)cc2)cc1 |
| 0.0125 (≈ 49 µM) | CCOC(=O)/C=C(C)\C=C\c1c[nH]c2ccccc12 |

| solubility kinetic [mg/mL] | SMILES |
| --- | --- |
| > 0.0417 | S=c1[nH]nc(-c2ccco2)n1-c1ccc(Cl)cc1 |
| 0.0371 (≈ 121 µM) | C/C(=C/c1ccccc1)C(=O)N1CCN(c2ccccc2)CC1 |
| > 0.0476 | COc1ccccc1CNC(=O)Cn1cc([N+](=O)[O-])ccc1=O |
| > 0.0459 | COC(=O)c1cccn(CC(=O)c2ccc(Cl)cc2)c1=O |
| 0.0191 (≈ 60.4 µM) | CCOCCCNC(=O)/C(C#N)=C/c1ccc(C(=O)OC)cc1 |
| 0.0536 (≈ 140 µM) | CC(C)Cc1csc(NC(=O)c2ccc(Br)cc2)c1C(=O)O |
| > 0.0592 | N#CC(c1nc2ccccc2nc1N1CCOCC1)S(=O)(=O)c1ccccc1 (centres undefined) |
| > 0.0347 | O=c1[nH]c(N2CCOCC2)nc2ccccc12 |
| > 0.0348 | Cc1ccc(-c2csc(CC(N)=O)n2)cc1 |
| 0.0206 (≈ 57.1 µM) | COc1ccccc1CNC(=O)CCCNC(=O)c1ccc(Cl)cc1 |
| 0.001 (≈ 3.08 µM) | CNc1nc(Cl)c(SC)c(NCc2cccc(OC)c2)n1 |
| 0.0339 (≈ 105 µM) | O=C(O)C(NS(=O)(=O)c1ccccc1)C(O)c1ccccc1 (centres undefined) |
| 0.0041 (≈ 13 µM) | Cc1cc(=O)oc2cc(OCC(=O)Nc3nccs3)ccc12 |
| 0.0221 (≈ 63.8 µM) | COc1ccc(OC)c(/C=C2\SC(N3CCCC(C)C3)=NC2=O)c1 (centres undefined) |
| > 0.0481 | OC(C#CCN1CCCCCC1)(c1ccccc1)c1cccnc1 (centres undefined) |
| > 0.0531 | CCS(=O)(=O)N1CCN(CC(=O)NC2CCCCC2)CC1.Cl |
| > 0.0491 | Br.CC(=O)c1sc(Nc2ccc(C)cc2)nc1C |
| > 0.0293 | COC(=O)c1c(C)[nH]c(C)c1C(C)=O |
| > 0.0575 | O=C(Nc1ccc2c(c1)OCCO2)C1CC(O)CN1C(=O)Nc1ccccc1 (centres undefined) |
| > 0.0353 | Cc1ccc(SC(C)C(=O)NC2CC2)cc1 (centres undefined) |
| 0.0021 (≈ 7.49 µM) | CC(=O)Nc1nccc(-c2cc(-c3ccccc3)no2)n1 |
| 0.003 (≈ 8.84 µM) | Cc1cccc(N2C(=O)CC(SC(N)=Nc3ccccc3)C2=O)c1 (centres undefined) |
| > 0.0713 | CC(C(O)c1ccc(O)cc1)N1CCC(Cc2ccccc2)CC1.O=C(O)C(O)C(O)C(=O)O (centres undefined) |

| solubility kinetic [mg/mL] | SMILES |
| --- | --- |
| > 0.0524 | C=CCC1(Cl)C(=O)C(Cl)=C(N2CCN(C)CC2)C1(OC)OC (centres undefined) |
| > 0.0414 | CC(=O)C1=C(O)C(=O)N(C)C1c1ccccc1[N+](=O)[O-] (centres undefined) |
| 0.0384 (≈ 99.1 µM) | Cc1ccc2c(COC(=O)C3CSC4(C)CCC(=O)N34)cc(=O)oc2c1C (centres undefined) |
| > 0.0481 | CCOC(=O)C1(CC2CC2)CCN(C(=O)c2ocnc2C)CC1 |
| > 0.0386 | Cc1ccc(C)c(NC(=S)Nc2cccnc2)c1 |
| 0.0009 (≈ 2.79 µM) | CCn1c(SCc2ccc(F)cc2)nc2c(c1=O)SCC2 |
| 0.0441 | CSc1ccc(/C=C/C(=O)N2CCCN(C)CC2)cc1.Cl |
| 0.0426 (≈ 125 µM) | Cc1ccc(CNC(=O)c2c(-c3ccccc3Cl)noc2C)cc1 |
| > 0.0479 | CCCCCCn1c(N2CCCC2)nc2c1c(=O)[nH]c(=O)n2C |
| < 0.0004 | Cc1ccc(C(=O)Nc2nc3ccc(S(C)(=O)=O)cc3s2)cc1C |
| 0.0407 (≈ 120 µM) | CC(C(=O)N1CCN(c2ccccc2)CC1)c1ccc([N+](=O)[O-])cc1 (centres undefined) |
| 0.0341 (≈ 120 µM) | CC1CC(C)CN(CCOc2cccc3ccccc23)C1 (centres undefined) |
| > 0.0308 | Nc1ncncc1-c1ccc(Cl)cc1 |
| > 0.0539 | O=C(CCN1C(=O)C2CC=CCC2C1=O)OCC(=O)c1ccc(F)cc1 (centres undefined) |
| 0.0065 (≈ 24.2 µM) | O=[N+]([O-])c1ccc(CNc2ccc(Cl)cc2)s1 |
| < 0.0007 | Cc1ccc(CNC(=O)Cc2ccc(Br)cc2)cc1 |
| > 0.0529 | COc1ccc(C)cc1NC(=O)C1CC(=O)N(CCc2ccccc2)C1 (centres undefined) |
| > 0.0464 | C=C(C)Cn1c(CCNC(=O)c2ccco2)nc2ccccc21 |
| > 0.0457 | Cc1cc(C)n(NC(=S)NC2CCCCC2)c(=O)c1C#N |
| > 0.0509 | C=CCNC(=S)N1CCN(S(=O)(=O)c2ccc(C)cc2)CC1 |

| SMILES | solubility kinetic [mg/mL] |
| --- | --- |
| O=C(COc1ccc(Cl)cc1)NCCc1cnc[nH]1 | > 0.042 |
| CCNc1nc(NC(C)(C)C)nc(SC)n1 | 0.0359 (≈ 149 µM) |
| OC(CCNCCc1c[nH]c2ccccc12)C(F)(F)Cl (centres undefined) | > 0.0454 |
| Cl.Clc1ccc2[nH]c3c(c2c1)CCNC3 | 0.0324 |
| Fc1ccc(OCCOCCN2CCNCC2)cc1.O=C(O)C(=O)O | 0.051 |
| CNC(=O)N(C)c1ccc(C(O)(C(=O)OC)C(F)(F)F)cc1 (centres undefined) | 0.0467 (≈ 146 µM) |
| Cc1c(C)c2ccc(OCC(=O)N3CCN(Cc4ccccc4)CC3)cc2oc1=O.Cl | 0.0025 |
